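Test compounds were applied to cells in 96-well plates for 48 hours at 5 doses. TGI is the concentration that stops growth completely.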
Assays:
Assay in all cases: NCI tumour cell line growth inhibition, 48 h
[1] = test system: NCI-H23 lung
[2] = test system: SK-OV-3 ovarian
[3] = test system: HOP-92 NSCLC
[4] = test system: NCI/ADR-RES ovarian
[5] = test system: HCT-116 colon
[6] = test system: SR leukemia
[7] = test system: SW-620 colon
[8] = test system: A498 renal
[9] = test system: HS 578T breast
[10] = test system: HOP-62 NSCLC
[11] = test system: RPMI-8226 leukemia
[12] = test system: UACC-62 melanoma
[13] = test system: IGROV1 ovarian
[14] = test system: SNB-19 CNS
[15] = test system: OVCAR-8 ovarian
[16] = test system: CCRF-CEM leukemia
[17] = test system: OVCAR-4 ovarian
[18] = test system: U251 CNS
[19] = test system: MDA-N
[20] = test system: UACC-257 melanoma
[21] = test system: K-562 leukemia
[22] = test system: LOX IMVI melanoma
[23] = test system: A549 NSCLC
[24] = test system: SK-MEL-2 melanoma
[25] = test system: M14 melanoma
[26] = test system: BT-549 breast
[27] = test system: HCT-15 colon
[28] = test system: MDA-MB-435
[29] = test system: MOLT-4 leukemia
[30] = test system: COLO 205 colon
[31] = test system: NCI-H522 lung
[32] = test system: MDA-MB-231 breast
[33] = test system: SF-539 CNS
[34] = test system: TK-10 renal
[35] = test system: ACHN renal
[36] = test system: CAKI-1 renal
[37] = test system: SF-268 CNS
[38] = test system: UO-31 renal
[39] = test system: NCI-H460 lung
[40] = test system: PC-3 prostate
[41] = test system: SK-MEL-5 melanoma
[42] = test system: SN12C renal
[43] = test system: MCF7 breast
[44] = test system: EKVX NSCLC
[45] = test system: 786-0 renal
[46] = test system: OVCAR-3 ovarian
[47] = test system: DU-145 prostate
[48] = test system: SF-295 CNS
[49] = test system: NCI-H226 lung
[50] = test system: T-47D breast
[51] = test system: SK-MEL-28 melanoma
[52] = test system: MALME-3M melanoma
[53] = test system: SNB-75 CNS
[54] = test system: HT29 colon
[55] = test system: OVCAR-5 ovarian
[56] = test system: HCC-2998 colon
[57] = test system: KM12 colon
[58] = test system: HL-60(TB) leukemia

Q: What does the source list for `CN(C)CC1CCC/C(=C\c2ccc(Cl)cc2)C1=O` (stereo not drawn)?
A: TGI [1]: 22.5 µM; TGI [2]: 23.2 µM; TGI [3]: 10.5 µM; TGI [4]: 18.9 µM; TGI [5]: 3.55 µM; TGI [6]: > 100 µM; TGI [7]: 4.08 µM; TGI [8]: 31.1 µM; TGI [9]: 12.3 µM; TGI [10]: 34.2 µM; TGI [11]: > 100 µM; TGI [12]: 4.5 µM; TGI [13]: 8.62 µM; TGI [14]: 26.5 µM; TGI [15]: 17.4 µM; TGI [16]: 3.39 µM; TGI [17]: 8.94 µM; TGI [18]: 9.08 µM; TGI [19]: 5.17 µM; TGI [20]: 12.3 µM; TGI [21]: 4.89 µM; TGI [22]: 3.25 µM; TGI [23]: 32.4 µM; TGI [24]: 2.05 µM; TGI [25]: 6.15 µM; TGI [26]: 3.45 µM; TGI [27]: 4.86 µM; TGI [28]: 9.22 µM; TGI [29]: > 21.7 µM; TGI [30]: 4.82 µM; TGI [31]: 3.27 µM; TGI [32]: 9.21 µM; TGI [33]: 29.1 µM; TGI [34]: 10 µM; TGI [35]: 7.04 µM; TGI [36]: 3.72 µM; TGI [37]: 8.33 µM; TGI [38]: 4.52 µM; TGI [39]: 43.3 µM; TGI [40]: 8 µM; TGI [41]: 12.3 µM; TGI [42]: 8.55 µM; TGI [43]: 3.38 µM; TGI [44]: 25.7 µM; TGI [45]: 3.22 µM; TGI [46]: 12.1 µM; TGI [47]: 29.1 µM; TGI [48]: 29.2 µM; TGI [49]: 28.8 µM; TGI [50]: 13.4 µM; TGI [51]: 9.04 µM; TGI [52]: 4.76 µM; TGI [53]: 14.9 µM; TGI [54]: > 32.7 µM; TGI [55]: 35.6 µM; TGI [56]: 18.1 µM; TGI [57]: 3.46 µM

Q: For `CN1C(=O)c2ccccc2OC12C=Cc1ccc(O)cc1O2` (stereo not drawn), which TGI [1] is on record?
A: > 100 µM

Q: What about the TGI [2] of the same compound?
A: 53.5 µM

Q: And the TGI [3]?
A: 80.9 µM

Q: And the TGI [4]?
A: 40.4 µM

Q: What about the TGI [5] of the same compound?
A: 81 µM

Q: And the TGI [6]?
A: 27.4 µM

Q: What about the TGI [7] of the same compound?
A: > 100 µM

Q: What about the TGI [8] of the same compound?
A: 53.4 µM

Q: What about the TGI [9] of the same compound?
A: 84.3 µM

Q: And the TGI [10]?
A: 73.7 µM

Q: What about the TGI [11] of the same compound?
A: > 100 µM

Q: What about the TGI [12] of the same compound?
A: 91.6 µM

Q: What about the TGI [13] of the same compound?
A: > 100 µM

Q: And the TGI [14]?
A: > 100 µM

Q: What about the TGI [15] of the same compound?
A: 37.4 µM

Q: What about the TGI [16] of the same compound?
A: 72.8 µM

Q: What about the TGI [17] of the same compound?
A: 96.9 µM

Q: And the TGI [18]?
A: > 100 µM

Q: And the TGI [19]?
A: > 100 µM

Q: And the TGI [20]?
A: 43.6 µM

Q: And the TGI [21]?
A: > 100 µM

Q: What about the TGI [22] of the same compound?
A: 26.8 µM

Q: And the TGI [23]?
A: > 100 µM

Q: What about the TGI [24] of the same compound?
A: 56.1 µM

Q: And the TGI [25]?
A: 45.3 µM

Q: What about the TGI [26] of the same compound?
A: 85.5 µM

Q: And the TGI [27]?
A: > 100 µM

Q: What about the TGI [28] of the same compound?
A: 85.3 µM

Q: And the TGI [29]?
A: 58.7 µM

Q: What about the TGI [30] of the same compound?
A: 65.1 µM

Q: And the TGI [31]?
A: > 100 µM

Q: And the TGI [32]?
A: 82.1 µM

Q: And the TGI [34]?
A: > 100 µM

Q: What about the TGI [35] of the same compound?
A: > 100 µM

Q: And the TGI [58]?
A: 58.5 µM

Q: What about the TGI [36] of the same compound?
A: 58 µM

Q: What about the TGI [37] of the same compound?
A: > 100 µM

Q: And the TGI [38]?
A: 57.7 µM

Q: And the TGI [39]?
A: 61.8 µM

Q: What about the TGI [40] of the same compound?
A: 59.2 µM

Q: What about the TGI [41] of the same compound?
A: 37.6 µM

Q: And the TGI [42]?
A: > 100 µM

Q: What about the TGI [43] of the same compound?
A: > 100 µM

Q: And the TGI [44]?
A: 64.5 µM

Q: And the TGI [45]?
A: > 100 µM

Q: What about the TGI [46] of the same compound?
A: 63.6 µM

Q: And the TGI [47]?
A: 69.7 µM

Q: And the TGI [48]?
A: > 100 µM

Q: What about the TGI [49] of the same compound?
A: 92.8 µM

Q: What about the TGI [50] of the same compound?
A: 52.6 µM

Q: What about the TGI [51] of the same compound?
A: > 100 µM

Q: What about the TGI [53] of the same compound?
A: 80.1 µM

Q: And the TGI [54]?
A: 57.2 µM

Q: What about the TGI [55] of the same compound?
A: > 100 µM

Q: And the TGI [56]?
A: 50.8 µM

Q: And the TGI [57]?
A: 77.5 µM

Source: PubChem BioAssay (NCI)
